Each structure is given as a SMILES string. ≈ marks a conversion by molar mass, not a printed value. Calls of active or inactive are those of the source. The rule behind the calls is not given here.

Experiment [1] is described as follows: Antimicrobial activity against Aeromonas hydrophila subsp. hydrophila ATCC 7966. The experiment is classed as functional.
For experiment [2], the system named is Micrococcus luteus. Put plainly: Antimicrobial activity against Micrococcus luteus. The class given is functional.
Experiment [3] relates to Escherichia coli. Put plainly: Antimicrobial activity against Escherichia coli ATCC 25922. The class given is functional.
Experiment [4] deals with Escherichia coli. Put plainly: Antimicrobial activity against Escherichia coli DH5[alpha]. The experiment is classed as functional.
The test system of experiment [5] is Staphylococcus aureus. Kind of experiment: Antimicrobial activity against Staphylococcus aureus ATCC 29213. The experiment is classed as functional.
Experiment [6] has as its system Bacillus thuringiensis. Kind of experiment: Antimicrobial activity against Bacillus thuringiensis. The class given is functional.
Experiment [7] relates to Bacillus subtilis. Kind of experiment: Antimicrobial activity against Bacillus subtilis ATCC 6633. The experiment is classed as functional.
The test system of experiment [8] is SF-268. Kind of experiment: Cytotoxicity against human SF268 cells by SRB method. The experiment is classed as functional, cell-based.
Experiment [9] relates to MCF7. Kind of experiment: Potency index, ratio of IC50 for cisplatin to IC50 for test compound against human MCF7 cells by SRB method. The experiment is classed as functional.
In experiment [10] the test system is HepG2. Kind of experiment: Cytotoxicity against human HepG2 cells by SRB method. The experiment is classed as functional, cell-based.
The subject of experiment [11] is MCF7. Kind of experiment: Cytotoxicity against human MCF7 cells by SRB method. The class given is functional, cell-based.
Experiment [12] concerns Nucleic Acid. Kind of experiment: Effect on F21T G-quadruplex DNA thermal stabilization assessed as change in melting temperature at 2 uM by FRET. The experiment is classed as nucleic-acid assay.
Experiment [13] has as its system NCI-H460. Put plainly: Potency index, ratio of IC50 for cisplatin to IC50 for test compound against human NCI-H460 cells by SRB method. The class given is functional.
For experiment [14], the system named is NCI-H460. Kind of experiment: Cytotoxicity against human NCI-H460 cells by SRB method. The experiment is classed as functional, cell-based.
Experiment [15] deals with Nucleic Acid. Put plainly: Binding affinity to human telomeric intramolecular HTG21 G-quadruplex DNA at 20 uM by CD spectroscopy. The experiment is classed as nucleic-acid assay.
Experiment [16] relates to SF-268. Kind of experiment: Potency index, ratio of IC50 for cisplatin to IC50 for test compound against human SF268 cells by SRB method. The experiment is classed as functional.
For experiment [17], the system named is HepG2. Kind of experiment: Potency index, ratio of IC50 for cisplatin to IC50 for test compound against human HepG2 cells by SRB method. The experiment is classed as functional.

In the case of `NC[C@H]1O[C@H](O[C@H]2[C@H](O)[C@@H](O[C@H]3O[C@H](CO)[C@@H](O)[C@H](N)[C@H]3O)[C@H](N)C[C@@H]2N)[C@H](O)[C@@H](O)[C@@H]1O` [KANAMYCIN], the MIC was less than 1 µg/mL in [1]; 32 µg/mL (≈ 66 µM) in experiment [2]; 16 µg/mL (≈ 33 µM) in experiment [3]; 32 µg/mL (≈ 66 µM) in experiment [4]; 8 µg/mL (≈ 16.5 µM) in experiment [5]; 4 µg/mL (≈ 8.26 µM) in experiment [6]. In [7], this compound returned a minimum inhibitory concentration (MIC) of less than 1 µg/mL.

With `CC[C@H](C)[C@@H]1NC(=O)[C@@H](Cc2ccccc2)NC(=O)[C@@H]2CSC(=N2)c2csc(n2)-c2csc(n2)-c2csc(n2)[C@@H](C)NC1=O` [MARTHIAPEPTIDE A], the IC50 in experiment [8] is 380 nM; in [10] it was 520 nM; in [11] it was 430 nM; in [14] it was 470 nM. In addition, the minimal inhibitory concentration (MIC) in [1] is greater than 128 µg/mL; in experiment [2], 2 µg/mL (≈ 3 µM); in [3] it was greater than 128 µg/mL; in experiment [4] it was greater than 128 µg/mL; in [5] it was 8 µg/mL (≈ 12 µM); in experiment [6], 2 µg/mL (≈ 3 µM). Moreover, in [7], the MIC came out at 4 µg/mL (≈ 6.01 µM). Also, the “Ratio IC50” value in experiment [9], in experiment [13], in experiment [16] and in [17] was 5 throughout. The thermal shift (ΔTm) in experiment [12] turned out to be 0.9 °C. Further, the result in experiment [15] was inactive.

Consider `CC[C@H]1OC(=O)[C@H](C)[C@@H](O[C@H]2C[C@@](C)(OC)[C@@H](O)[C@H](C)O2)[C@H](C)[C@@H](O[C@@H]2O[C@H](C)C[C@H](N(C)C)[C@H]2O)[C@](C)(O)C[C@@H](C)C(=O)[C@H](C)[C@@H](O)[C@]1(C)O` [ERYTHROMYCIN], for which the minimum inhibitory concentration (MIC) in [1] was 4 µg/mL (≈ 5.45 µM); in experiment [2] it was less than 1 µg/mL; in [3], 32 µg/mL (≈ 43.6 µM); in experiment [4], 64 µg/mL (≈ 87.2 µM); in experiment [5], 16 µg/mL (≈ 21.8 µM); in [6], less than 1 µg/mL. The MIC in experiment [7] is less than 1 µg/mL.

The record behind these values is ChEMBL document CHEMBL2202952, “Marthiapeptide A, an anti-infective and cytotoxic polythiazole cyclopeptide from a 60 L scale fermentation of the deep sea-derived Marinactinospora thermotolerans SCSIO 00652” (J Nat Prod, 2012).
